Data set [1] deals with Mycobacterium tuberculosis. Put plainly: Potency index, ratio of cycloserine IC50 to test compound IC50 for antimycobacterial activity against Mycobacterium tuberculosis H37Rv by microdilution alamar blue broth assay. Format: functional. (In general: Broth dilution looks for growth in wells or tubes with falling amounts of substance.)
Data set [2] is described as follows: Cytotoxicity against African green monkey Vero cells assessed as cell viability after 72 hrs by MTT assay. Format: cell-based. The settings on record: chlorocebus sabaeus, read-out: MNCC. In general terms: Tetrazolium assays rely on reduction of a dye to a coloured formazan, in cell work by metabolically active cells.
The test system of a further data set is HT-29. In words: Antiproliferative activity against human HT-29 cells assessed as inhibition of cell proliferation incubated for 72 hrs by CellTiter-Glo assay. The settings on record: HT-29, 72 h. Format: functional, cell-based. In general terms: ATP-based viability assays read luminescence as a measure of living cells.
Data set [3] relates to MCF7. In words: Antiproliferative activity against human MCF7 cells assessed as inhibition of cell proliferation at 50 uM incubated for 72 hrs by CellTiter-Glo assay relative to control. Format: functional. The settings on record: MCF7, read-out: INH.
The test system of data set [4] is Mycobacterium tuberculosis. In words: Antimycobacterial activity against Mycobacterium tuberculosis H37Rv assessed as inhibition of bacterial growth by microdilution alamar blue broth assay. Format: functional, organism-based.
In data set [5] the test system is MCF7. Put plainly: Antiproliferative activity against human MCF7 cells assessed as inhibition of cell proliferation incubated for 72 hrs by CellTiter-Glo assay. Format: functional, cell-based. The settings on record: MCF7, 72 h.
A further data set has as its target Acetylcholinesterase (Homo sapiens, UniProt P22303). In words: Inhibition of AChE (unknown origin) using acetylthiocholine chloride as substrate preincubated with enzyme for 15 mins followed by substrate addition by Ellman's method.
For data set [6], the system named is Mycobacterium tuberculosis. Put plainly: Potency index, ratio of pyrimethamine IC50 to test compound IC50 for antimycobacterial activity against Mycobacterium tuberculosis H37Rv by microdilution alamar blue broth assay. Format: functional.
For data set [7], the system named is Mycobacterium tuberculosis. In words: Antimycobacterial activity against Mycobacterium tuberculosis H37Rv assessed as inhibition of bacterial growth at 0.17 mM by microdilution alamar blue broth assay relative to control. Format: functional.
The test system of data set [8] is Mycobacterium tuberculosis. In words: Antimycobacterial activity against Mycobacterium tuberculosis H37Rv assessed as inhibition of bacterial growth at 3.198 mM by microdilution alamar blue broth assay. Format: functional, organism-based.

Converted amounts (≈) assume the structure as drawn. The source made the active and inactive calls. The calls are words filed in the database; no cut-off is given here.

Acetylcholinesterase, sequence (P22303 whole entry): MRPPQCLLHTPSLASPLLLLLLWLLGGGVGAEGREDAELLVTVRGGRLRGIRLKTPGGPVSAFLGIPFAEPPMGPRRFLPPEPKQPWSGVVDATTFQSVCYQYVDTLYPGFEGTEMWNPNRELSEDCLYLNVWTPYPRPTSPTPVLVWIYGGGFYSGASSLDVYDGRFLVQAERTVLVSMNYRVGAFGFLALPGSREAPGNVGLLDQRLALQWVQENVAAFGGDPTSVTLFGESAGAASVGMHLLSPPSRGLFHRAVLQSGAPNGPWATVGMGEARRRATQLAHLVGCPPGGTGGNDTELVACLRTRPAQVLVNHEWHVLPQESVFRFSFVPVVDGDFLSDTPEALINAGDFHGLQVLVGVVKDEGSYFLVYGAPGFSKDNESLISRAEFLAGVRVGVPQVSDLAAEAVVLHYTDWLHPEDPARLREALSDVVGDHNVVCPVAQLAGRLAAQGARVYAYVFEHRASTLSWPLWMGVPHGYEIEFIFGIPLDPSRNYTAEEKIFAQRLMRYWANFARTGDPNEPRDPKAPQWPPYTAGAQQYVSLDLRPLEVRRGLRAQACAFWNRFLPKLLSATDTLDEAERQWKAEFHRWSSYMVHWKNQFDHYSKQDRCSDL

By IC50 is commonly meant the concentration needed to halve the response being measured. As a reminder, the IC90 is the concentration at which the effect reaches the 90% level. A word on the MIC: it is the lowest concentration that inhibits growth of the organism. For `O=C1c2ccccc2C(=O)C12N1CSC[C@@H]1C(c1ccc(Cl)cc1Cl)[C@@]21CSc2ccccc2C1=O` (single isomer, unassigned), the figures for the “Ratio IC50” value in [1] and in data set [6] were 4 and 12, respectively. Besides, the MNTC at 72 h in data set [2] was over 6.25 µg/mL. In addition, the IC50 was 101 µM in the data set on HT-29, 2.87 µM in data set [4], 105 µM with MCF7 [5] and 19.5 µM against Acetylcholinesterase. Further, in the data set on MCF7 [3], the inhibition at 50 µM is under 50%. The IC90 in [4] is 4.6 µM. Further, the MIC in data set [4] amounted to 6.25 µM (≈ 3.45 µg/mL).

Consider `NCC[C@H](O)C(=O)N[C@@H]1C[C@H](N)[C@@H](O[C@H]2O[C@H](CN)[C@@H](O)[C@H](O)[C@H]2O)[C@H](O)[C@H]1O[C@H]1O[C@H](CO)[C@@H](O)[C@H](N)[C@H]1O` [AMIKACIN], for which the MNTC at 72 h in data set [2] was over 6.25 µg/mL. The inhibition at 170 µM in data set [7] was determined as 30%. Also, in data set [4], the IC90 was determined as 0.08 µM and the MIC was found to be 0.16 µM (≈ 0.0937 µg/mL). Also, the result in data set [8] was Active.

As to `CN1CC(c2ccccc2Cl)[C@@]2(CSc3ccccc3C2=O)C12C(=O)c1ccccc1C2=O` (single isomer, unassigned), the MNTC at 72 h in [2] is over 6.25 µg/mL. For the same molecule, the IC50 came to 97.2 µM with HT-29, 47.2 µM in data set [4], 86 µM in the data set with MCF7 [5] and 10.1 µM on Acetylcholinesterase. Further, in the data set on MCF7 [3], the inhibition at 50 µM is under 50%. Moreover, the IC90 in [4] is 66.5 µM. Besides, the MIC in data set [4] was 100 µM (≈ 47.4 µg/mL).

On to `O=C1c2ccccc2C(=O)C12N1CSC[C@@H]1C(c1ccccc1Cl)[C@@]21CSc2ccccc2C1=O` (single isomer, unassigned), for which the MNTC at 72 h in data set [2] is over 6.25 µg/mL. Moreover, the IC50 in the data set on HT-29 is 88.1 µM; in [4], 8.57 µM; in the data set with MCF7 [5], 101 µM; on Acetylcholinesterase, 33.2 µM. Also, the inhibition at 50 µM with MCF7 [3] was under 50%. Moreover, the IC90 in [4] is 14.7 µM. Also, the MIC in data set [4] turned out to be 50 µM (≈ 25.9 µg/mL).

For `CC(C)c1ccc([C@@H]2CN(C)C3(C(=O)c4ccccc4C3=O)[C@]23CSc2ccccc2C3=O)cc1`, in data set [2], the MNTC at 72 h is over 6.25 µg/mL. Also, the IC50 in the data set with HT-29 was 98.3 µM; in data set [4], 25.9 µM; in the data set with MCF7 [5], 93 µM; on Acetylcholinesterase, 19.8 µM. For the same molecule, the inhibition at 50 µM in the data set with MCF7 [3] is under 50%. Also, the IC90 in data set [4] worked out at 44.6 µM. In data set [4], the MIC worked out at 100 µM (≈ 48.2 µg/mL).

Consider `O=C1c2ccccc2C(=O)C12N1CSC[C@@H]1[C@@H](c1ccc(Cl)cc1)[C@@]21CSc2ccccc2C1=O`, for which, in [2], the MNTC at 72 h is over 6.25 µg/mL. Besides, the half-maximal inhibitory concentration (IC50) in the data set with HT-29 was 76.7 µM; in [4], 7.2 µM; in the data set on MCF7 [5], 104 µM; at Acetylcholinesterase, 21.3 µM. Besides, the inhibition at 50 µM with MCF7 [3] was under 50%. Besides, the IC90 in data set [4] is 15.5 µM. The minimum inhibitory concentration (MIC) in [4] came to 50 µM (≈ 25.9 µg/mL).

In the case of `CN1CC(c2ccc(Cl)cc2Cl)[C@@]2(CSc3ccccc3C2=O)C12C(=O)c1ccccc1C2=O` (single isomer, unassigned), the results for the “Ratio IC50” value in data set [1] and in [6] were 12 and 37, respectively. Further, the MNTC at 72 h in data set [2] is over 6.25 µg/mL. The IC50 with HT-29 was determined as 90 µM; in data set [4], 1.07 µM; in the data set with MCF7 [5], 107 µM; against Acetylcholinesterase, 24.1 µM. Also, the inhibition at 50 µM in the data set with MCF7 [3] is under 50%. Moreover, in [4], the IC90 was 1.98 µM. In [4], the MIC stood at 6.25 µM (≈ 3.18 µg/mL).

The values are drawn from ChEMBL document CHEMBL4715772, “A facile stereoselective synthesis of dispiro-indeno pyrrolidine/pyrrolothiazole-thiochroman hybrids and evaluation of their antimycobacterial, anticancer and AchE inhibitory activities” (Bioorg Med Chem, 2016).
